Data reported in patent publication US11793199B2, “Formulations and methods for controlling rootworm larvae” (FMC Corporation, priority 2016, dated 2023).

Columns and labels:
[1] = tested on: WCRW larvae; experiment: Residual activity of treated soil maintained outdoors, water pH 6, 7, 8 (Example 4); assay type: in vivo, Diabrotica virgifera virgifera
Description: A solution of the Test Formula A was prepared by making dilutions in water to form a solution. Dry, Midwestern soil was brought up to 15% moisture with treatment solutions (Table 5). Buckets of treated soil were carted outside daily between Monday and Friday and exposed to direct sunlight. Carts were not wheeled out on days that forecasted precipitation. At the end of each day, soil buckets were brought back into the laboratory, weighed, the appropriate amount of water added to the soil to bring it back up to 15% moisture, and covered overnight; daily records of weights and amount of water added to each bucket was recorded.
At 30DAT, 42DAT, 57DAT, and 85DAT, […] WCRW larvae were infested into treated soil containing and germinating corn seed and evaluated 6 days after infestation (6DAI) for percent control and larval stunting. There were 6 replicates per infestation date with 5 larvae per replicate (n=30). Treatments applied to dry Midwestern soil for assessment of residual WCRW included Test Formula at 67, 267, and 1,069 ppm, Capture LFR at 1988.5 and 3,977 ppm.

[2] = tested on: 2nd instar WCRW; experiment: Residual activity of treated Midwestern soil kept in lab at 15% moisture (Example 5); assay type: in vivo, Diabrotica virgifera virgifera
Description: In order to induce seed germination prior to test initiation, corn seed was submerged in water for 12 h and then placed between layers of moistened paper towel for 72 h. Plastic Dart® containers (1 oz/30 ml) were utilized for the assay. Treatments included tetraniliprole Test Formula according to the present invention, Capture LFR® (bifenthrin), and Rugby® (cadusafos). A 60 g ai/ha foliar rate applied at a volume of 30GPA equates to 213.8 ppm. If this application rate was condensed into a 6″ T-band application that assumed a 30″ row spacing, the ppm rate would increase to 1069 ppm (213.8 ppm×5). Five rates were selected for the experimental treatment (Test Formula) and compared to a single rate of two standard treatments (Capture LFR and Rugby). Treatment solutions (Table 4) were mixed into dry, sifted, Midwestern soil, from Wyoming, Illinois, by adding 300mLs of solution into 2000 g of soil and equates to approximate 15% soil moisture value; soil clumped when pinched.
An estimated 0.75 cm of treated soil was placed into the bottom of each container, one germinated corn seed was placed onto the soil, and then the arenas were capped with a lid until rootworms were infested. Corn was covered with approximately 1.75 cm of treated soil. Using a fine tipped paint brush, 5 WCRW larvae (2nd instar) were transferred onto the soil of each replicate and then capped. There were 8 replicates and 40 larvae per treatment. Arenas containing soil, corn, and larvae were transferred into the Insectary room (≈23° C., 0 L:24D) and evaluated 6 days later for the presence of living larvae. Larvae not recovered within each arena were considered dead. Additional treated soil was maintained within a 5 gallon bucket, covered with aluminum […], and weights recorded. Additional water was added every Monday in order to maintain a 15% soil moisture level.
All mortality data was analyzed by ANOVA/GLM with an alpha of 0.1 (Minitab 16.0).

## tetraniliprole
[1]; 67 ppm (3.75 g ai/ha), soil kept outdoors, water pH 6, 7 or 8
  control to WCRW larvae: ≥ 87%
[1]; 67 ppm, 57 DAT and 85 DAT
  state of surviving larvae compared to the non-treated check: severely stunted
[2]; 3.75 g ai/ha, 0 DAT
  size of larvae: approximately half the size as the untreated check
[2]; 15, 30, 60 g ai/ha, lab soil at 15% moisture
  control to 2nd instar WCRW larvae at 64DAT: ≥ 95%
[2]; all treated soils, 0 DAT
  larval stunting compared to the untreated check: Stunted larvae were detected
  protection to the root and shoot system of corn: evident
[2]; lab soil 15% moisture, 66.8 ppm (3.75 g ai/ha in-furrow), after 144 h within treated soil
  2nd instar WCRW: % Mortality 0DAT: < 80%
[2]; lab soil 15% moisture, 133.6 ppm (7.5 g ai/ha in-furrow), after 144 h within treated soil
  2nd instar WCRW: % Mortality 0DAT: < 80%
[2]; lab soil, 534.5 ppm (30 g ai/ha in-furrow), after 144 h
  2nd instar WCRW: % Mortality 0DAT: 97.5%
[2]; lab soil, 1069 ppm (60 g ai/ha in-furrow), after 144 h
  2nd instar WCRW: % Mortality 0DAT: 97.5%
